Paper PMC5762728 (Scientific Reports, 2018)
One block for each compound: values may come before it.

Experiments:
N-domain of ACE [1] = details: cited from earlier work
N-domain of ACE (N-ACE) [2] = experiment: N-ACE with lisinopril; details: bovine, 37 °C
N-domain of ACE [3] = details: cited from earlier work; remark: listed apart in the source
[4] = biological target: T1, C-domain of bovine ACE (C-ACE) (Bos taurus, UniProt P12820); experiment: Inhibition of C-ACE hydrolysis of Aβ peptides by lisinopril; type: biochemical; details: lisinopril 10 μM; MALDI-TOF MS
T1 sequence (P12820 643-1222 limits assumed): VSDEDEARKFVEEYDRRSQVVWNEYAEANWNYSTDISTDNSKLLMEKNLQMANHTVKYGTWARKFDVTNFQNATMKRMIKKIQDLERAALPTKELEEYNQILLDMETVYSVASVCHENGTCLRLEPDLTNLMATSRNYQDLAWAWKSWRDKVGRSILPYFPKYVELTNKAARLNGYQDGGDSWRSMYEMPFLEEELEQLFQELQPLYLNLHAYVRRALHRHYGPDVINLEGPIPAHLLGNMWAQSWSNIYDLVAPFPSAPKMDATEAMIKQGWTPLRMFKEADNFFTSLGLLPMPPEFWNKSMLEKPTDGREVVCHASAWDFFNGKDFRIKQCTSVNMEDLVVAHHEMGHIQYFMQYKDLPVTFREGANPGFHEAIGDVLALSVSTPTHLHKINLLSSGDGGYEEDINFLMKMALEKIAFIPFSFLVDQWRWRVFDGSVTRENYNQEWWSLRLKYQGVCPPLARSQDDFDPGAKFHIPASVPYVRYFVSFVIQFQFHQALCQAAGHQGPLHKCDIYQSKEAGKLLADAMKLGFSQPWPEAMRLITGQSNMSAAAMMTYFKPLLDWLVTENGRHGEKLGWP

N-domain of ACE (N-ACE) [5] = experiment: N-ACE with lisinopril, ratAβ substrate; details: bovine, 37 °C, up to 60 min
[6] = tested on: N-ACE (N-domain of bovine ACE); details: 37 °C, up to 60 min
C-domain of ACE (C-ACE) = experiment: C-ACE with lisinopril, ratAβ substrate; details: bovine, 37 °C, up to 60 min
[7] = biological target: T2, N-domain of bovine ACE (N-ACE) (Bos taurus, UniProt P12820); experiment: Hydrolysis of Aβ metal-binding-domain peptides by N-ACE, products identified/quantified by MALDI-TOF MS
T2 sequence (P12820 40-624 limits assumed): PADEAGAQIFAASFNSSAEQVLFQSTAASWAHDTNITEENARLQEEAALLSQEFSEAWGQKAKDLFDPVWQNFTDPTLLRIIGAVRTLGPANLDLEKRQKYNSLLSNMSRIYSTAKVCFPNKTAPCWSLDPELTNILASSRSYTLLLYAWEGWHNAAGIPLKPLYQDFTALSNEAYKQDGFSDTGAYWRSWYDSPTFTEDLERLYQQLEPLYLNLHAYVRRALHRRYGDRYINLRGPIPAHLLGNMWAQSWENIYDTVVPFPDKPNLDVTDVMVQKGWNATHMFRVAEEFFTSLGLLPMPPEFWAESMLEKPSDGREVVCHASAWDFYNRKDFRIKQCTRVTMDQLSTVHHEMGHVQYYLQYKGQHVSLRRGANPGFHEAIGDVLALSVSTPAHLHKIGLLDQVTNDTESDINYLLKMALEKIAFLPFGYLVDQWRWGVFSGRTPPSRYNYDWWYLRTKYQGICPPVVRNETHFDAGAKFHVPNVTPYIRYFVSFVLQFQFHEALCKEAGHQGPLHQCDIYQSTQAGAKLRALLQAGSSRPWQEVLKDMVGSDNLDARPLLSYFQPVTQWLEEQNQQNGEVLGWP

[8] = biological target: T1, C-domain of bovine ACE (C-ACE); experiment: Hydrolysis of Aβ metal-binding-domain peptides by C-ACE, products identified/quantified by MALDI-TOF MS; details: same experimental conditions as N-ACE, 37 °C

Compound: Pyr-HWSYGLRPG-[Amide]
fragment found (N-domain of ACE [1]): N-terminal tripeptide

not cleaved (N-domain of ACE (N-ACE) [2]): complete inhibition of hydrolysis
Compound: [CH3CO]-Asp-Ala-Glu-Phe-Arg^5-His-Asp- Ser-Gly-Tyr^10-Glu-Val-His-His-Gln^15-Lys-[NH2]

Compound: Pyr-HWSYGLRPG-[Amide] [luliberin, regulatory peptide, natural substrate of ACE]
Endoproteolytic cleavage by the N-domain of ACE (N-domain of ACE [3]): cleaves an N-terminal tripeptide

Compound: NCCCC[C@H](N[C@@H](CCc1ccccc1)C(=O)O)C(=O)N1CCC[C@H]1C(=O)O [lisinopril]
Effect of lisinopril on C-ACE hydrolysis of Aβ(1-16) [4]: fully prevented the formation of these products of hydrolysis

not cleaved (N-domain of ACE (N-ACE) [5]): complete inhibition of hydrolysis
cleaved bond [6]: Arg13-His14, 10 min
not cleaved (C-domain of ACE (C-ACE)): complete inhibition of hydrolysis
Compound: Ac-DAEFGHDSGFEVRHQK-NH2
not cleaved [6]: absence of endopeptidase activity toward the G5-H6 peptide bond

Peptide bond hydrolysed by N-ACE ([7]; bicarbonate buffer pH 7.8, 37 °C, incubation 40 min (Aβ(1-16)), 130 min (amidated Aβ peptides), 60 min (ratAβ peptide)): Arg13-His14
Bond cleaved, N-ACE (backbone positions) ([7]; same digestion as products observed, N-ACE, 37 °C): 13–14
Compound: Ac-DAEFGHDSGFEVRHQK-NH2 [[CH3CO]-Asp-Ala-Glu-Phe-Gly^5-His-Asp- Ser-Gly- Phe^10-Glu-Val-Arg-His-Gln^15-Lys-[NH2]]
Peptide bond(s) hydrolysed by C-ACE [8]: Arg13-His14, His14-Gln15, and Gln15- Lys16
